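Method: 48-hour compound exposure of cells in 96-well plates, five concentrations, linear interpolation of endpoints. At the GI50, growth is halved. TGI is the concentration that stops growth completely.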
Key:
Experiment in all cases: DTP human tumour cell line panel, 48 h
HOP-62 NSCLC = test system: HOP-62 NSCLC
ACHN renal = test system: ACHN renal
MDA-MB-231 breast = test system: MDA-MB-231 breast
HCT-15 colon = test system: HCT-15 colon
DU-145 prostate = test system: DU-145 prostate
SN12C renal = test system: SN12C renal
NCI-H23 lung = test system: NCI-H23 lung
SR leukemia = test system: SR leukemia
TK-10 renal = test system: TK-10 renal
SK-MEL-5 melanoma = test system: SK-MEL-5 melanoma
RXF 393 renal = test system: RXF 393 renal
MOLT-4 leukemia = test system: MOLT-4 leukemia
NCI-H522 lung = test system: NCI-H522 lung
SNB-19 CNS = test system: SNB-19 CNS
HCC-2998 colon = test system: HCC-2998 colon
OVCAR-4 ovarian = test system: OVCAR-4 ovarian
HOP-92 NSCLC = test system: HOP-92 NSCLC
HT29 colon = test system: HT29 colon
OVCAR-8 ovarian = test system: OVCAR-8 ovarian
LOX IMVI melanoma = test system: LOX IMVI melanoma
OVCAR-3 ovarian = test system: OVCAR-3 ovarian
HL-60(TB) leukemia = test system: HL-60(TB) leukemia
SK-MEL-2 melanoma = test system: SK-MEL-2 melanoma
RPMI-8226 leukemia = test system: RPMI-8226 leukemia
OVCAR-5 ovarian = test system: OVCAR-5 ovarian
A498 renal = test system: A498 renal
SK-OV-3 ovarian = test system: SK-OV-3 ovarian
SK-MEL-28 melanoma = test system: SK-MEL-28 melanoma
MDA-MB-435 = test system: MDA-MB-435

O=c1ccc(N=Nc2ccccc2)ccc1Cl
GI50 (HOP-62 NSCLC): 31.3 µM
TGI (HOP-62 NSCLC): > 100 µM
GI50 (ACHN renal): 3.11 µM
TGI (ACHN renal): 10.2 µM
GI50 (MDA-MB-231 breast): 9.01 µM
TGI (MDA-MB-231 breast): 21.2 µM
GI50 (HCT-15 colon): 2.53 µM
TGI (HCT-15 colon): 8.07 µM
GI50 (DU-145 prostate): 15.5 µM
TGI (DU-145 prostate): 29 µM
GI50 (SN12C renal): 12.9 µM
TGI (SN12C renal): 25.7 µM
GI50 (NCI-H23 lung): 6.25 µM
TGI (NCI-H23 lung): 21.9 µM
GI50 (SR leukemia): 1.73 µM
TGI (SR leukemia): > 100 µM
GI50 (TK-10 renal): 13.7 µM
TGI (TK-10 renal): 26.6 µM
GI50 (SK-MEL-5 melanoma): 15.7 µM
TGI (SK-MEL-5 melanoma): 31.7 µM
GI50 (RXF 393 renal): 8.19 µM
TGI (RXF 393 renal): 22.1 µM
GI50 (MOLT-4 leukemia): 0.749 µM
TGI (MOLT-4 leukemia): > 100 µM
GI50 (NCI-H522 lung): 1.8 µM
TGI (NCI-H522 lung): 3.67 µM
GI50 (SNB-19 CNS): 26.2 µM
TGI (SNB-19 CNS): 91.4 µM
GI50 (HCC-2998 colon): 12.2 µM
TGI (HCC-2998 colon): 26.4 µM
GI50 (OVCAR-4 ovarian): 12.8 µM
TGI (OVCAR-4 ovarian): 25.9 µM
GI50 (HOP-92 NSCLC): 13.9 µM
TGI (HOP-92 NSCLC): 28.1 µM
GI50 (HT29 colon): 5.62 µM
TGI (HT29 colon): 19.2 µM
GI50 (OVCAR-8 ovarian): 3.49 µM
TGI (OVCAR-8 ovarian): 13.1 µM
GI50 (LOX IMVI melanoma): 2.24 µM
TGI (LOX IMVI melanoma): 6.74 µM
GI50 (OVCAR-3 ovarian): 4.39 µM
TGI (OVCAR-3 ovarian): 15.6 µM
GI50 (HL-60(TB) leukemia): 18.1 µM
TGI (HL-60(TB) leukemia): 87.1 µM
GI50 (SK-MEL-2 melanoma): 13.9 µM
TGI (SK-MEL-2 melanoma): 29.8 µM
GI50 (RPMI-8226 leukemia): 3.76 µM
TGI (RPMI-8226 leukemia): 27.4 µM
GI50 (OVCAR-5 ovarian): 15.4 µM
TGI (OVCAR-5 ovarian): 29.3 µM
GI50 (A498 renal): > 100 µM
TGI (A498 renal): > 100 µM
GI50 (SK-OV-3 ovarian): 48 µM
TGI (SK-OV-3 ovarian): > 100 µM
GI50 (SK-MEL-28 melanoma): 14.5 µM
TGI (SK-MEL-28 melanoma): 27.9 µM
GI50 (MDA-MB-435): 14.8 µM

From PubChem BioAssay (NCI)
